Data taken from patent US20260083865A1, “PROSTATE SPECIFIC MEMBRANE ANTIGEN (PSMA) LIGANDS AND USE THEREOF” (priority 2022, published 2026).
Read-outs that look alike come from different tables or passages of the source. Numbered stars: 1 amine (or outer) side, 2 acyl side, 3 side chain; on linkers, the order of the positions; unused ones are H or OH. Bridge positions count the residues as written; N and C are the ends. Square brackets hold non-standard residues; d marks the D form. Side chains are listed from the residue outwards. Peptide text beside a SMILES is read from it. * marks the point of attachment. X3 = O=C(O)CN1CCN(CC(=O)O)CCN(CC(=O)NCCCOCCOCCOCCCN*)CCN(CC(=O)O)CC1; DOTA = O=C(O)CN1CCN(CC(=O)O)CCN(CC(=O)*)CCN(CC(=O)O)CC1; Phe(4-Cl) = N[C@@H](Cc1ccc(Cl)cc1)C(=O)O; Phe(3-Me) = Cc1cccc(C[C@H](N)C(=O)O)c1; Arg(Me) = CNC(=N)NCCC[C@H](N)C(=O)O; X1 = O=C(CC1CCN([*:1])CC1)[*:2]; Lys(Me) = CNCCCC[C@H](N)C(=O)O; αMeD = C[C@](N)(CC(=O)O)C(=O)O; d(αMeS) = C[C@@](N)(CO)C(=O)O; Suc = O=C(CCC(=O)[*:2])[*:1]; Tle = CC(C)(C)[C@H](N)C(=O)O; Pyridin(2-yl) = c1ccc(*)nc1; Orn = NCCC[C@H](N)C(=O)O; Aib = CC(C)(N)C(=O)O; CO = O=C([*:1])[*:2]; NHBu = CCCCN*

Experiments:
[1] = biological target: T1, PSMA-expressing C4-2 cells (Homo sapiens, UniProt Q04609); assay: FACS binding assay (competition with 50 nM PSM-0183); details: read-out: pIC50 [C4-2] CAT (converted)
T1 construct: PSMA-expressing C4-2 cells (ATCC, Cat. No. CRL-3314) were cultured in RPMI-1640; host or cells: C4-2 cells
Protocol: In order to determine binding of compounds according to the present invention to PSMA-expressing cells, a FACS binding assay was established.
PSMA-expressing C4-2 cells (ATCC, Cat. No. CRL-3314) were cultured in RPMI-1640 (Pan Biotech, Cat. No. P04-18050) including 10% fetal calf serum (Biochrom) and 100 U/ml penicillin and 100 μg/mL streptomycin (Sigma, Cat. No. P0781). Cells were detached with Accutase (Biolegend, Cat. No. BLD-423201) and washed in FACS buffer (PBS (Sigma, Cat. No. D8537) including 1% fetal calf serum). Cells were diluted in FACS buffer to a final concentration of 500,000 cells per mL. 200 μL of the cell suspension were transferred to a u-shaped non-binding 96-well plate (Greiner Bio-One, Cat. No. 650901) and cells were washed in ice-cold FACS buffer.
For IC50 determination, C4-2 cells were incubated with 50 nM PSM-0183 (Ac-Thr-Aib-Phe[Cys-Lys-Arg-Aib-Asn-Cys]-Tle-Thr-Asp-Ttds-Ttds-AF488N3K-NH2) in the presence of increasing concentrations of test compounds at 4° C. for 1 hour. After two wash steps with ice-cold FACS buffer, cells were analyzed in an Attune NxT flow cytometer. Median fluorescence intensities (MFI) of the FITC/AF488-channel were calculated by Attune NxT software. MFI values were plotted against peptide concentration and four parameter logistic (4PL) curve fitting and IC50/pIC50 calculations were performed using ActivityBase software (IDBS).

[2] = biological target: T2, Fc-fusion protein of human PSMA (hPSMA-Fc) (Homo sapiens, UniProt Q04609); assay: Surface plasmon resonance assay (Biacore T200, single cycle kinetic); type: binding; details: hPSMA-Fc, 25° C., read-out: pKD CAT (converted)
T2 construct: purchased Acro Biosystems PSA-H5264
Protocol: Surface plasmon resonance (SPR) studies were performed using a Biacore™ T200 SPR system. Briefly, polarized light is directed towards a gold-labeled sensor surface, and minimum intensity reflected light is detected. The angle of reflected light changes as molecules bind and dissociate.
Fc-fusion protein of human PSMA (hPSMA-Fc, Acro Biosystems, Cat #PSA-H5264) was captured on a Fc-capture chip (Biacore™ CM5 sensor chip coated with ˜300 RU of an Fc-binding peptide). hPSMA-Fc was diluted in Running Buffer (HBST, 0.1% DMSO) to a final concentration of 100 nM and then flushed over the Fc-capture chip to immobilized ˜1000 RUs.
Stock solutions of test compounds were prepared by dissolving each compound in DMSO. DMSO stock solution were diluted 1:1000 in Running Buffer without DMSO. Further sequential dilutions were made with Running Buffer containing 0.1% DMSO. SPR binding analyses were performed in Single Cycle Kinetic (SCK) mode at 25° C. Flow cell coated with the Fc-binding peptide only served as reference flowcell. After each SCK run, hPSMA-Fc was removed with 10 mM glycine buffer, pH 1.5.
In between every three SCK measurements, a blank run with Running Buffer instead of test compound was included to correct for baseline drifts (double blanking method).
Table 5 describes the protocol steps for Fc-fusion target capturing and assessment of the binding kinetics.
For each test compound, SPR raw data in the form of resonance units (RU) were plotted as sensorgrams using the Biacore™ T200 control software. The signal from the blank sensorgram was subtracted from that of the test compound sensorgram (blank corrected). The blank corrected sensorgram was corrected for baseline drift by subtracting the sensorgram of a SCK run without the test compound (running buffer only). The dissociation constant (KD) was calculated from Blank-normalized SPR data using the 1:1 Langmuir binding model from the Biacore™ Insight Evaluation software. The pKD value (negative decadic logarithm of dissociation constant) was calculated using Microsoft Excel.

[3] = FACS binding, PSMA-expressing C4-2 cells, pIC50 category
[4] = pIC50 category of FACS binding, C4-2 cells
[5] = pKD category for PSMA SPR activity assay

T2 sequence (Q04609 44-750 limits assumed): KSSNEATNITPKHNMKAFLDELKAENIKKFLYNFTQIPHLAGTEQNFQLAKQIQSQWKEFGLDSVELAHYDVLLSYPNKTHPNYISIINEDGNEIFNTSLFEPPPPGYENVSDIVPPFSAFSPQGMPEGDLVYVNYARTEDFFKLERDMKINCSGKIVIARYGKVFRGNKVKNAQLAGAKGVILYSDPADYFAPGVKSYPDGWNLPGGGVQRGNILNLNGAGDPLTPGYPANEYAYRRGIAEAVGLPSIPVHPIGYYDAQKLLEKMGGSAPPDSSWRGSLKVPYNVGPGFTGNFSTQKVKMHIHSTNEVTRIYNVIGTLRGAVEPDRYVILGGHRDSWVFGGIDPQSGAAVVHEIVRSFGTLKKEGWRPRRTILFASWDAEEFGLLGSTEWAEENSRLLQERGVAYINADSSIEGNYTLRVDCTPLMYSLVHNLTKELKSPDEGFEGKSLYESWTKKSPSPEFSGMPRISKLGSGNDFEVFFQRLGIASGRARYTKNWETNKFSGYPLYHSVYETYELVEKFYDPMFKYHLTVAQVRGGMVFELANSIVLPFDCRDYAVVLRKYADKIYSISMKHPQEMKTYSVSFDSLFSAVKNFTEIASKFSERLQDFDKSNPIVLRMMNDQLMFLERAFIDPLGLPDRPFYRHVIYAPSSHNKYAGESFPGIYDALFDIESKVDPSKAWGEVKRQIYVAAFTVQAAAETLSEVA
T1 sequence (Q04609 whole entry): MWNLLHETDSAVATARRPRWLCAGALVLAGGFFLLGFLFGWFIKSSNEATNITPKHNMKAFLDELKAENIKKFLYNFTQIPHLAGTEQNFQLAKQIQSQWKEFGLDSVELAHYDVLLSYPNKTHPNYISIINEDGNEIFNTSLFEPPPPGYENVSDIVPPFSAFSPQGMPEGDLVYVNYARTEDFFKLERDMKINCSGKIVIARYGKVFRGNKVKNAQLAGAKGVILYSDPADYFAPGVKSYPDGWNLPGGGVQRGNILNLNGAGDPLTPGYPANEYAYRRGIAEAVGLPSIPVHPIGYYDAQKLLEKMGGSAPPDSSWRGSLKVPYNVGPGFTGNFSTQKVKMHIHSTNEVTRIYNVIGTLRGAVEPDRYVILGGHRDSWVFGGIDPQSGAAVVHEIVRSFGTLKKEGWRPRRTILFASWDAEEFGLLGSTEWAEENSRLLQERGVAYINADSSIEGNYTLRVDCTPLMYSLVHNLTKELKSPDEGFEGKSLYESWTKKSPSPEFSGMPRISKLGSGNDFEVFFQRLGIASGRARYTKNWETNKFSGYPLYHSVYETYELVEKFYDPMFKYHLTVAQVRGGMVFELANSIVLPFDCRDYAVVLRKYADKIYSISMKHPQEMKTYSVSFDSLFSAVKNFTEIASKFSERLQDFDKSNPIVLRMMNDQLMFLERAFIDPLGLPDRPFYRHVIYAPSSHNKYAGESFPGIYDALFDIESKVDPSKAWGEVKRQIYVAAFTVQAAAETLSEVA

Row | Compound | IC50 [1, 3] [nM] | Kd ([2]; PSMA SPR assay, pKD category) [nM] | IC50 [1, 4] [nM] | Kd [2, 5] [nM] | also measured
1 | C[C@@H](O)[C@H](NC(=O)[C@@H](NC(=O)[C@@H]1CSSC[C@H](NC(=O)[C@H](Cc2ccc(Cl)cc2)NC(=O)C(C)(C)NC(=O)[C@@H](NC(=O)CC2CCN(C(=O)CN3CCN(CC(=O)O)CCN(CC(=O)O)CCN(CC(=O)O)CC3)CC2)[C@@H](C)O)C(=O)N[C@@H](CCCCN)C(=O)N[C@@H](CCCNC(=N)N)C(=O)N[C@](C)(CO)C(=O)N[C@@H](CC(N)=O)C(=O)N1)C(C)(C)C)C(N)=O [PSM-0314, DOTA-Cmp-Thr-Aib-Pcf-[Cys-Lys-Arg-ams-Asn-Cys]-Tle-Thr-NH2] ({DOTA}-[X1]T[Aib][Phe(4-Cl)]CKR[d(αMeS)]NC[Tle]T-NH2; disulfide 5-10) | < 200 | < 12.6 | – | – | –
2 | CCCCNC(=O)N[C@H](C(=O)NC(C)(C)C(=O)N[C@@H](Cc1ccccc1)C(=O)N[C@H]1CSSC[C@@H](C(=O)N[C@H](C(=O)N[C@H](C(=O)N2CCC(CC(=O)N[C@H](CCCCNC(=O)CN3CCN(CC(=O)O)CCN(CC(=O)O)CCN(CC(=O)O)CC3)C(N)=O)CC2)[C@@H](C)O)C(C)(C)C)NC(=O)[C@H](CC(N)=O)NC(=O)C(C)(C)NC(=O)[C@H](CCCNc2ccccn2)NC(=O)[C@H](CCCCN)NC1=O)[C@@H](C)O [PSM-0258, nBuCAyl-Thr-Aib-Phe-[Cys-Lys-Opy-Aib-Asn-Cys]-Tle-Thr-Cmp-lys(DOTA)-NH] ({NHBu-CO}-T[Aib]FCK[Orn](Pyridin(2-yl))[Aib]NC[Tle]T[X1][dK](DOTA)-NH2; disulfide 4-9) | – | – | – | – | IC50 ([1]; FACS binding, C4-2 cells, competition with 50 nM PSM-0183, category): 200 to 1260 nM; Kd ([2]; SPR, single cycle kinetic, category): 126 to 501 nM
3 | CNCCCC[C@@H]1NC(=O)[C@@H](NC(=O)[C@H](Cc2cccc(C)c2)NC(=O)C(C)(C)NC(=O)[C@@H](NC(=O)CC2CCN(C(=O)CN3CCN(CC(=O)O)CCN(CC(=O)O)CCN(CC(=O)O)CC3)CC2)[C@@H](C)O)CSSC[C@@H](C(=O)N[C@H](C(N)=O)C(C)(C)C)NC(=O)[C@H](CC(N)=O)NC(=O)C(C)(C)NC(=O)[C@H](CCCNC(=N)NC)NC1=O [PSM-0503, DOTA-Cmp-Thr-Aib-Mmf-[Cys-Lys(Me)-Arg(Me)-Aib-Asn-Cys]-Tle-NH2] ({DOTA}-[X1]T[Aib][Phe(3-Me)]C[Lys(Me)][Arg(Me)][Aib]NC[Tle]-NH2; disulfide 5-10) | – | – | < 200 | 12.6 to 126 | –

Now from value to molecule, other results behind:

Row | IC50 [1, 3] [nM] | Kd ([2]; PSMA SPR assay, pKD category) [nM] | IC50 [1, 4] [nM] | Kd [2, 5] [nM] | Compound | also measured
4 | < 200 | < 12.6 | – | – | C[C@@H](O)[C@H](NC(=O)[C@@H](NC(=O)[C@@H]1CSSC[C@H](NC(=O)[C@H](Cc2ccc(Cl)cc2)NC(=O)C(C)(C)NC(=O)[C@@H](NC(=O)CC2CCN(C(=O)CN3CCN(CC(=O)O)CCN(CC(=O)O)CCN(CC(=O)O)CC3)CC2)[C@@H](C)O)C(=O)N[C@@H](CCCCN)C(=O)N[C@@H](CCCNC(=N)N)C(=O)N[C@@](C)(CC(=O)O)C(=O)N[C@@H](CC(N)=O)C(=O)N1)C(C)(C)C)C(N)=O [PSM-0302, DOTA-Cmp-Thr-Aib-Pcf-[Cys-Lys-Arg-Amd-Asn-Cys]-Tle-Thr-NH2] ({DOTA}-[X1]T[Aib][Phe(4-Cl)]CKR[αMeD]NC[Tle]T-NH2; disulfide 5-10) | –
5 | – | – | 200 to 1260 | 12.6 to 126 | CC(=O)N[C@H](C(=O)NC(C)(C)C(=O)N[C@@H](Cc1ccccc1)C(=O)N[C@H]1CSSC[C@@H](C(=O)N[C@H](C(=O)N[C@H](C(N)=O)[C@@H](C)O)C(C)(C)C)NC(=O)[C@H](CC(N)=O)NC(=O)[C@H](CCCCNC(=O)CCC(=O)NCCCOCCOCCOCCCNC(=O)CN2CCN(CC(=O)O)CCN(CC(=O)O)CCN(CC(=O)O)CC2)NC(=O)[C@H](CCC(N)=O)NC(=O)[C@H](CCCCN)NC1=O)[C@@H](C)O [PSM-0423, Ac-Thr-Aib-Phe-[Cys-Lys-Gln-Lys(DOTA-Ttds)-Asn-Cys]-Tle-Thr-NH2] (Ac-T[Aib]FCKQK([Suc-X3])NC[Tle]T-NH2; disulfide 4-9) | –
